Here are results for 84 substances from patent US20240207421A1, “NERVE TARGETING PEPTIDES AND METHODS OF USE” (ALUME BIOSCIENCES, INC., priority 2020, published 2024).

In the experiment the test system is Laminin 421/521. The experiment is described as follows: Phage display library screening (Example 2), NEB laminin-binding peptides. The conditions noted are these: Laminin 421/521, not 211 and 411; combined unique sequence count, Python/R script analysis. Further details: species or system human. The method, then:
Phage display library screens were used to identify peptides that bind to target proteins (including specific laminin trimers) that are expressed in human nerves, as described in Table 3. These screens were also carried out to identify peptides that could bind selectively to nerves versus muscle. Such peptides could therefore be useful for systemic in-vivo labeling of nerves during fluorescence assisted surgery. Specifically, m 13 phage libraries expressing 7 or 12 random amino acid peptides, or a cyclic peptide CX7C, on the N-terminus of the minor coat protein pIII (New England Biolabs; NEB) were processed through multiple rounds of selection for binding to target proteins expressed in nerves, or to excised human nerves, nerve extracts, or muscle, as described further below.
For screening against the specified target proteins in Table 1, including LN211, LN411, LN421, and LN521, the phage library was processed by up to 4 binding and wash cycles. For selection, phage libraries were incubated for up to 24 hours at 4° C. in 96 well plates that had been coated with one of the target proteins. Plates were then washed with PBS and phage were eluted using 0.2M glycine pH 2.0. Phage supernatants where then neutralized with Tris pH 9.0 prior to plating on TGI bacteria and LB agar plates. Colonies were counted to determine titer followed by DNA preparation of pools of phage and NextGen sequencing. After rounds of selection, phage were pooled and amplified for iterative selection. Phage that were bound at each round were sequenced. NextGen sequencing of pools after 2, 3 and 4 rounds of selection was used to isolate candidate sequences that were analyzed further to identify those that specifically bound each unique target protein.
For all NEB sequence datasets, a python script was used to translate, trim, and filter the peptide sequences (see details above). A python script was used to group peptides from different assays according to laminin complex binding (laminin complex 211, 411, 421, or 521) and combine the unique sequence counts for each peptide. An R script was written to merge the peptide sequences from different data files and determine peptides that specifically bind one laminin complex and not the others, or that bind both laminin 421 and 521 but not 211 and 411.
On to “ADMPQMTLKYGV (Laminin 421/521-binding peptide)”, for which the Count stood at 47.
With “AGAYTSRHAFDE (Laminin 421/521-binding peptide)”, the Count stood at 39.
For the substance “AHAAGRDMRQGT (Laminin 421/521-binding peptide)”, the Count is given as 36.
“AKTQAPSNWSGV (Laminin 421/521-binding peptide)”: the Count is on record as 43.
For the substance “ALGGEPRKAYQR (Laminin 421/521-binding peptide)”, the Count came to 45.
For the substance “ALKIGPETTIYM (Laminin 421/521-binding peptide)”, the Count is given as 35.
Regarding “ALPWQSGVHGTK (Laminin 421/521-binding peptide)”, the Count came out at 34.
Regarding “ANRYLAS (Laminin 421/521-binding peptide)”, the Count stood at 40.
Consider “APKVTNARPTQL (Laminin 421/521-binding peptide)”, for which the Count was 147.
As for “AQGVWWSEWFAP (Laminin 421/521-binding peptide)”, the Count came to 42.
In the case of “AQNLRVHAWASL (Laminin 421/521-binding peptide)”, the Count worked out at 28.
In the case of “AQRMNQA (Laminin 421/521-binding peptide)” it was 38; in that of “ASHSRPLMNYAP (Laminin 421/521-binding peptide)”, 49; in that of “ATSKYPNSWAQT (Laminin 421/521-binding peptide)”, 80.
Regarding “AVRPLGLPDNHR (Laminin 421/521-binding peptide)”, the Count came to 29.
For the substance “AVVSQNQMSQQK (Laminin 421/521-binding peptide)”, the Count is 64.
Take “AVYPLDLGAGMR (Laminin 421/521-binding peptide)”: the Count came to 46.
In the case of “AWNGNRS (Laminin 421/521-binding peptide)” it was 47.
As to “AWVEAQNASNPS (Laminin 421/521-binding peptide)”, the Count is 160.
As for “CFQPKMNSC (Laminin 421/521-binding peptide)”, the Count stood at 42.
For the substance “CGETTAGKC (Laminin 421/521-binding peptide)”, the Count worked out at 33.
For “CGITQTTTC (Laminin 421/521-binding peptide)”, the Count turned out to be 55.
Consider “CGLATNKSC (Laminin 421/521-binding peptide)”, for which the Count is recorded as 39.
As to “CHNADNNGC (Laminin 421/521-binding peptide)”, the Count was determined as 32.
As for “CHQRQQTYC (Laminin 421/521-binding peptide)”, the Count is reported as 55.
Take “CHRTYNSTC (Laminin 421/521-binding peptide)”: the Count is recorded as 46.
In the case of “CIGGPHRNC (Laminin 421/521-binding peptide)” it was 29; in that of “CKSERGPEC (Laminin 421/521-binding peptide)”, 30.
“CKSPAIKGC (Laminin 421/521-binding peptide)”: the Count was 29.
In the case of “CKSPIKGTC (Laminin 421/521-binding peptide)” it was 27; in that of “CKWTQLWGC (Laminin 421/521-binding peptide)”, 40.
“CLHNGQRSC (Laminin 421/521-binding peptide)”: the Count turned out to be 37.
In the case of “CLKDTHLNC (Laminin 421/521-binding peptide)”, the Count is reported as 40.
Regarding “CLNQKWEAC (Laminin 421/521-binding peptide)”, the Count is recorded as 64.
In the case of “CLQKNHKFC (Laminin 421/521-binding peptide)” it was 27.
With “CMNKIQRDC (Laminin 421/521-binding peptide)”, the Count is 131.
In the case of “CNHLTQKLC (Laminin 421/521-binding peptide)” it was 45; in that of “CNSWKAAKC (Laminin 421/521-binding peptide)”, 29; in that of “CPMHQSKTC (Laminin 421/521-binding peptide)”, 28.
“CQGWPRPMC (Laminin 421/521-binding peptide)”: the Count is reported as 30.
For “CQTSGHHQC (Laminin 421/521-binding peptide)”, the Count is given as 31.
In the case of “CSHHKLKQC (Laminin 421/521-binding peptide)” it was 359; in that of “CSKHNHSRC (Laminin 421/521-binding peptide)”, 295; in that of “CSLANPATC (Laminin 421/521-binding peptide)”, 52.
As to “CSRAGLSAC (Laminin 421/521-binding peptide)”, the Count is reported as 30.
In the case of “CSSQAKRSC (Laminin 421/521-binding peptide)” it was 31.
For the substance “CSVWNSGNC (Laminin 421/521-binding peptide)”, the Count stood at 43.
For the substance “CTAWTRQEC (Laminin 421/521-binding peptide)”, the Count is given as 31.
In the case of “CTDGRNFVC (Laminin 421/521-binding peptide)” it was 28; in that of “CTGETLLTC (Laminin 421/521-binding peptide)”, 28.
Consider “CTGRISKHC (Laminin 421/521-binding peptide)”, for which the Count is 43.
Regarding “CTKSPSNSC (Laminin 421/521-binding peptide)”, the Count amounted to 58.
For the substance “CTPRSATLC (Laminin 421/521-binding peptide)”, the Count worked out at 37.
For “CTSKLARHC (Laminin 421/521-binding peptide)”, the Count was determined as 45.
In the case of “CTSSSHQTC (Laminin 421/521-binding peptide)” it was 28; in that of “CTWKHRDNC (Laminin 421/521-binding peptide)”, 30.
Regarding “CVLKCEDQKYRG (Laminin 421/521-binding peptide)”, the Count was determined as 27.
For “CWSGNSRSC (Laminin 421/521-binding peptide)”, the Count is given as 42.
With “DDLLTAPRLGVW (Laminin 421/521-binding peptide)”, the Count is on record as 54.
Turning to DGANMENIAPAN, the Count stood at 27.
Turning to “DGQVSDHSYVQW (Laminin 421/521-binding peptide)”, the Count was determined as 101.
“DIMKSPRSNLRS (Laminin 421/521-binding peptide)”: the Count is 37.
For the substance “DRLTPITWDWSR (Laminin 421/521-binding peptide)”, the Count amounted to 86.
In the case of “DRMYSTVPAEGL (Laminin 421/521-binding peptide)” it was 27.
Turning to “DSLYRGMHQPRI (Laminin 421/521-binding peptide)”, the Count is recorded as 29.
As for “DVIHSSRGAYFE (Laminin 421/521-binding peptide)”, the Count is listed as 36.
Turning to “DWTQVRVTNWFL (Laminin 421/521-binding peptide)”, the Count is on record as 35.
In the case of “EAVSTQI (Laminin 421/521-binding peptide)” it was 27; in that of “EDRMMTYRYTST (Laminin 421/521-binding peptide)”, 29; in that of “ETGGLAYGSGQK (Laminin 421/521-binding peptide)”, 28.
For the substance “ETYKVTRVISPW (Laminin 421/521-binding peptide)”, the Count worked out at 50.
In the case of “EVERILTPHVNN (Laminin 421/521-binding peptide)”, the Count was determined as 29.
Consider “EYVKFSHSPRTY (Laminin 421/521-binding peptide)”, for which the Count is 31.
Consider “EYWHQRGSWFHR (Laminin 421/521-binding peptide)”, for which the Count was found to be 55.
Turning to “FNSDSRSTHQED (Laminin 421/521-binding peptide)”, the Count is reported as 29.
For “FPLKIRT (Laminin 421/521-binding peptide)”, the Count is listed as 42.
Consider “GAMMNSNNLVAR (Laminin 421/521-binding peptide)”, for which the Count worked out at 43.
As for “GDAQILM (Laminin 421/521-binding peptide)”, the Count is reported as 38.
In the case of “GDLLLKR (Laminin 421/521-binding peptide)”, the Count amounted to 47.
Take “GDLWNVP (Laminin 421/521-binding peptide)”: the Count is listed as 51.
Consider “GDVITAYINPWP (Laminin 421/521-binding peptide)”, for which the Count stood at 39.
Consider “GEPLTRFPNSDS (Laminin 421/521-binding peptide)”, for which the Count is given as 52.
Turning to “GFADVIHRKWSS (Laminin 421/521-binding peptide)”, the Count was 53.
As for “GGGYHIFGPLVT (Laminin 421/521-binding peptide)”, the Count worked out at 43.
